ChEMBL document CHEMBL1201862, “PubChem BioAssay data set” (2004)
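Each compound was tested at five concentrations against cells in 96-well plates for 48 hours. Here, GI50 denotes the concentration required for 50% inhibition of growth.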 Activity calls are given as the source filed them. No stated cut-off is given here; in the data, active = GI50 up to about 1.1 µM and inactive = higher.

Assays:
Assay in all cases: growth of human tumour cells (NCI), 48 h
OVCAR-5 = tested on: OVCAR-5
SNB-75 = tested on: SNB-75
HT-29 = tested on: HT-29
MOLT-4 = tested on: MOLT-4
OVCAR-3 = tested on: OVCAR-3
NCI-H460 = tested on: NCI-H460
SN12C = tested on: SN12C
LOX IMVI = tested on: LOX IMVI
PC-3 = tested on: PC-3
UACC-257 = tested on: UACC-257
U-251 = tested on: U-251
UACC-62 = tested on: UACC-62
RPMI-8226 = tested on: RPMI-8226
SR = tested on: SR
SK-MEL-5 = tested on: SK-MEL-5
NCI/ADR-RES = tested on: NCI/ADR-RES
SK-MEL-2 = tested on: SK-MEL-2
ACHN = tested on: ACHN
KM12 = tested on: KM12
SF-539 = tested on: SF-539

Measured: GI50

COc1cc2nc(-c3ccccc3)cc(O)c2c(OC)c1OC
inactive: OVCAR-5 > 100 µM | SNB-75 > 100 µM | HT-29 > 100 µM | MOLT-4 > 100 µM | OVCAR-3 > 100 µM | NCI-H460 > 100 µM | SN12C > 100 µM | LOX IMVI > 100 µM | PC-3 > 100 µM | UACC-257 > 100 µM | U-251 > 100 µM | UACC-62 > 100 µM | RPMI-8226 > 100 µM | SR > 100 µM | SK-MEL-5 > 100 µM | NCI/ADR-RES > 100 µM | SK-MEL-2 > 100 µM | ACHN > 100 µM | KM12 > 100 µM

CCCCCCc1nn2c(-c3ccncc3)nnc2s1
inactive: OVCAR-5 > 10 µM | SF-539 > 10 µM | HT-29 > 10 µM | MOLT-4 > 10 µM | OVCAR-3 > 10 µM | NCI-H460 > 10 µM | SN12C > 10 µM | LOX IMVI > 10 µM | PC-3 > 10 µM | UACC-257 > 10 µM | U-251 > 10 µM | UACC-62 > 10 µM | RPMI-8226 > 10 µM | SR > 10 µM | SK-MEL-5 > 10 µM | NCI/ADR-RES > 10 µM | SK-MEL-2 > 10 µM | ACHN > 10 µM | KM12 > 10 µM

Cc1nc(N)c(N2CCN(C#N)CC2)c(O)n1
inactive: OVCAR-5 > 100 µM | SF-539 > 100 µM | SNB-75 > 100 µM | HT-29 > 100 µM | MOLT-4 > 100 µM | OVCAR-3 28.8 µM | NCI-H460 > 100 µM | SN12C > 100 µM | LOX IMVI > 100 µM | PC-3 > 100 µM | UACC-257 > 100 µM | U-251 > 100 µM | RPMI-8226 > 100 µM | SR > 100 µM | NCI/ADR-RES > 100 µM | SK-MEL-2 > 100 µM | ACHN > 100 µM | KM12 > 100 µM

CC1(C)O[C@@H](CBr)C[C@H](C[C@H]2C[C@@H](O)C[C@@H](CCOCc3ccccc3)O2)O1
inactive: OVCAR-5 18.7 µM | SNB-75 20.5 µM | MOLT-4 47.1 µM | OVCAR-3 19.4 µM | NCI-H460 29.9 µM | SN12C 30.4 µM | LOX IMVI 26.2 µM | PC-3 20.1 µM | UACC-257 19 µM | U-251 31.8 µM | UACC-62 18.4 µM | RPMI-8226 27.5 µM | SR 27.7 µM | SK-MEL-5 30.3 µM | NCI/ADR-RES 18.7 µM | SK-MEL-2 16.4 µM | ACHN 23.2 µM | KM12 21.5 µM

Cc1ccc(C2=C(C#N)C(=O)N3CCN=C3S2)cc1
inactive: OVCAR-5 > 100 µM | SF-539 > 100 µM | SNB-75 > 100 µM | HT-29 57.1 µM | MOLT-4 > 100 µM | OVCAR-3 > 100 µM | NCI-H460 > 100 µM | SN12C > 100 µM | LOX IMVI > 100 µM | PC-3 > 100 µM | UACC-257 > 100 µM | U-251 > 100 µM | UACC-62 > 100 µM | SR > 100 µM | SK-MEL-5 > 100 µM | NCI/ADR-RES > 100 µM | SK-MEL-2 > 100 µM | ACHN 45.1 µM | KM12 > 100 µM

CC(=O)Oc1ccn2nc(C)c(Br)c2c1Br
inactive: SF-539 21.2 µM | SNB-75 22.1 µM | HT-29 20.7 µM | MOLT-4 15.3 µM | OVCAR-3 17.6 µM | NCI-H460 21.5 µM | SN12C 27.7 µM | LOX IMVI 18.4 µM | PC-3 18.4 µM | UACC-257 16.7 µM | U-251 35.1 µM | UACC-62 17.7 µM | SR 40.9 µM | SK-MEL-5 17.5 µM | NCI/ADR-RES 47.6 µM | SK-MEL-2 27.5 µM | ACHN 17.6 µM | KM12 33.7 µM

OC[C@H]1N[C@H](CO)[C@@H](O)[C@H]1O
inactive: OVCAR-5 > 100 µM | SF-539 > 100 µM | SNB-75 > 100 µM | HT-29 > 100 µM | MOLT-4 > 100 µM | SN12C > 100 µM | LOX IMVI > 100 µM | PC-3 > 100 µM | UACC-257 > 100 µM | U-251 > 100 µM | UACC-62 > 100 µM | RPMI-8226 > 100 µM | SR > 100 µM | SK-MEL-5 > 100 µM | NCI/ADR-RES > 100 µM | SK-MEL-2 > 100 µM | ACHN > 100 µM | KM12 > 100 µM

COc1cc(CNc2nc3cc(C(F)(F)F)ccc3nc2C(=O)O)cc(OC)c1OC
inactive: OVCAR-5 49.3 µM | SF-539 15.2 µM | SNB-75 19.9 µM | MOLT-4 20.7 µM | OVCAR-3 24.3 µM | NCI-H460 25.4 µM | SN12C 15.4 µM | LOX IMVI 31.4 µM | PC-3 21.5 µM | UACC-257 21.5 µM | U-251 15.7 µM | UACC-62 15.5 µM | SR 33.3 µM | NCI/ADR-RES 24.4 µM | SK-MEL-2 19.9 µM | ACHN 26.4 µM | KM12 24.7 µM

COC(=O)c1ccccc1NC(=S)NN(C)C
inactive: OVCAR-5 > 100 µM | SF-539 > 100 µM | SNB-75 28.6 µM | MOLT-4 > 100 µM | OVCAR-3 > 100 µM | LOX IMVI > 100 µM | PC-3 > 100 µM | UACC-257 > 100 µM | U-251 > 100 µM | UACC-62 > 100 µM | RPMI-8226 > 100 µM | SR > 100 µM | NCI/ADR-RES > 100 µM | SK-MEL-2 > 100 µM | ACHN > 100 µM | KM12 > 100 µM

CC(=O)N1c2ccccc2C2=NN=C(N(C)C)SC21 (centres undefined)
inactive: OVCAR-5 4.24 µM | SF-539 3.48 µM | SNB-75 13.6 µM | HT-29 4.86 µM | MOLT-4 3.09 µM | OVCAR-3 3.05 µM | NCI-H460 2.46 µM | SN12C 2.08 µM | LOX IMVI 2.1 µM | PC-3 2.84 µM | UACC-257 3.64 µM | U-251 1.67 µM | RPMI-8226 5.96 µM | SR 3.28 µM | NCI/ADR-RES 2.75 µM | SK-MEL-2 2.18 µM | ACHN 2.54 µM | KM12 3.18 µM

CC1=CC(=O)N(n2c(Cc3ccc(Cl)cc3)n[nH]c2=O)C1=O
inactive: OVCAR-5 > 100 µM | SF-539 39.1 µM | HT-29 19.5 µM | MOLT-4 20.8 µM | OVCAR-3 33.6 µM | NCI-H460 36.1 µM | SN12C 81.3 µM | LOX IMVI 27.6 µM | PC-3 26.4 µM | UACC-257 > 100 µM | U-251 27.2 µM | UACC-62 19.3 µM | RPMI-8226 22.6 µM | SR 15.9 µM | SK-MEL-5 46 µM | NCI/ADR-RES > 100 µM | SK-MEL-2 > 100 µM | ACHN 82 µM | KM12 52.4 µM
